Assay results published in patent US20260209193A1, “NOVEL INHIBITORS OF DNA DAMAGE RESPONSES FOR CANCER THERAPY” (The Regents of the University of California, priority 2022, published 2026).

Experiments:
ATR = molecular target: T1, ATR (Homo sapiens, UniProt Q13535); test: ATR-mediated signaling: phosphorylation of Rad17 Ser 645 and CHK1 Ser 345 in cells; assay type: cell-based; conditions: compared to JC099
T1 construct: endogenous in cells; host or cells: PC3, C4-2B/MR, SUM149PT-BRCA1rev, UWB1.289+BRCA1, MDA-MB-231
Method: PARP inhibitor-resistant cells are increasingly dependent on ATR for survival, and ATR inhibition disrupts restored HR and fork protection pathways in PARP inhibitor resistant BRCA-deficient cancer cells. For ATR kinase in vitro assays, ATR was immunoprecipitated with 3 μg of anti-ATR antibody (Bethyl Laboratories, A300-137A) from 1 mg of cell lysate. […] The IC50 was determined by the enzyme profiling service of Eurofins Cerep (France). […] The phosphorylation of CHK1 at Ser 345 sites was used as a bio-marker of ATR-mediated signaling pathway. The phosphorylation of Rad17 at Ser 645, which is a substrate of ATR, was also examined.
ATR inhibition was assessed in C4-2B/MR cells. Considering ATM is a homologous protein of ATR, we also detected the effect of JC046 analogs on the phosphorylation of KAP1 at Ser 824 and CHK2 at Thr 68 sites, which were used as markers of ATM signaling pathway.

PARP1 = molecular target: T2, PARP1 (Homo sapiens, UniProt P09874); test: PARP1 trapping, chromatin fractionation (chromatin-bound fraction); assay type: cell-based; conditions: PC3 cells
T2 construct: endogenous in cells; host or cells: PC3
From the text: The trapped PARP1 forms a toxic lesion and stalls the progress of replication forks. The replication fork collapses in BRCA1/2-deficient cancer cells, and then results in cell death. […] Six cancer cell lines were used in this assay, including two breast cancer cell lines, BRCA1-mutunt SUM149PT-BRCA1mut and SUM149PT-BRCA1rev where deleterious BRCA1 mutation is reverted to form a functional BRCA1, two ovarian cancer cell lines, BRCA1-null UWB1.289 and UWB1.289+BRCA1, a stable cell line in which wild-type BRCA1 function has been restored, and two prostate cancer cell lines, enzalutamide resistant C4-2B/MR which is homologous recombination (HR)-deficient due to Rad51 mutation, and enzalutamide insensitive PC3 which is HR-proficient.

T2 sequence (P09874 whole entry, species assumed): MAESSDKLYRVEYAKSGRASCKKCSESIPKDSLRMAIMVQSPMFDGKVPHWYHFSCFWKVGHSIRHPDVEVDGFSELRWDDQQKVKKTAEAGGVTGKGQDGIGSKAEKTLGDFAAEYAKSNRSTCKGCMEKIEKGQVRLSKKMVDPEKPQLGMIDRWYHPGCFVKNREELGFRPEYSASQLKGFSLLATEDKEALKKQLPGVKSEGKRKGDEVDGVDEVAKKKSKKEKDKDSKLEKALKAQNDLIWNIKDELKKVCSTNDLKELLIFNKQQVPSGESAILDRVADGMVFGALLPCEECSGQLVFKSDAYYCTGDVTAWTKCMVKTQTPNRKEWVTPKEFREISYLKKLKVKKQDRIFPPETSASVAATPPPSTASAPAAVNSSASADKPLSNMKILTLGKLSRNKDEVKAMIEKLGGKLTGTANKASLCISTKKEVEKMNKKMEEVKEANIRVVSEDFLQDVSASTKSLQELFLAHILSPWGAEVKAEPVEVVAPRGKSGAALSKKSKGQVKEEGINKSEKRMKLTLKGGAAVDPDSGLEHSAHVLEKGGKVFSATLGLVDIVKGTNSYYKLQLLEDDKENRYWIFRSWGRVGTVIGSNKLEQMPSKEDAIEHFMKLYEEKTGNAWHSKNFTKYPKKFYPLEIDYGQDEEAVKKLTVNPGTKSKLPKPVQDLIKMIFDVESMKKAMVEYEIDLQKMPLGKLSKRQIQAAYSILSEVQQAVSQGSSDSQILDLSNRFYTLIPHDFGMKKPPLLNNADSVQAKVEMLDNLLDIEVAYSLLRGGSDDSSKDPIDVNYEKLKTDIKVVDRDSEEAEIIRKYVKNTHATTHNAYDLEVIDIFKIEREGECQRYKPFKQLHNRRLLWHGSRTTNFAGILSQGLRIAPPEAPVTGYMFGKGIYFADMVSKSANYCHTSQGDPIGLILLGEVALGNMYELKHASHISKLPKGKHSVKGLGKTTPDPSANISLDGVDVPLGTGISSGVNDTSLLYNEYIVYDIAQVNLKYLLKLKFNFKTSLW
T1 sequence (Q13535 whole entry): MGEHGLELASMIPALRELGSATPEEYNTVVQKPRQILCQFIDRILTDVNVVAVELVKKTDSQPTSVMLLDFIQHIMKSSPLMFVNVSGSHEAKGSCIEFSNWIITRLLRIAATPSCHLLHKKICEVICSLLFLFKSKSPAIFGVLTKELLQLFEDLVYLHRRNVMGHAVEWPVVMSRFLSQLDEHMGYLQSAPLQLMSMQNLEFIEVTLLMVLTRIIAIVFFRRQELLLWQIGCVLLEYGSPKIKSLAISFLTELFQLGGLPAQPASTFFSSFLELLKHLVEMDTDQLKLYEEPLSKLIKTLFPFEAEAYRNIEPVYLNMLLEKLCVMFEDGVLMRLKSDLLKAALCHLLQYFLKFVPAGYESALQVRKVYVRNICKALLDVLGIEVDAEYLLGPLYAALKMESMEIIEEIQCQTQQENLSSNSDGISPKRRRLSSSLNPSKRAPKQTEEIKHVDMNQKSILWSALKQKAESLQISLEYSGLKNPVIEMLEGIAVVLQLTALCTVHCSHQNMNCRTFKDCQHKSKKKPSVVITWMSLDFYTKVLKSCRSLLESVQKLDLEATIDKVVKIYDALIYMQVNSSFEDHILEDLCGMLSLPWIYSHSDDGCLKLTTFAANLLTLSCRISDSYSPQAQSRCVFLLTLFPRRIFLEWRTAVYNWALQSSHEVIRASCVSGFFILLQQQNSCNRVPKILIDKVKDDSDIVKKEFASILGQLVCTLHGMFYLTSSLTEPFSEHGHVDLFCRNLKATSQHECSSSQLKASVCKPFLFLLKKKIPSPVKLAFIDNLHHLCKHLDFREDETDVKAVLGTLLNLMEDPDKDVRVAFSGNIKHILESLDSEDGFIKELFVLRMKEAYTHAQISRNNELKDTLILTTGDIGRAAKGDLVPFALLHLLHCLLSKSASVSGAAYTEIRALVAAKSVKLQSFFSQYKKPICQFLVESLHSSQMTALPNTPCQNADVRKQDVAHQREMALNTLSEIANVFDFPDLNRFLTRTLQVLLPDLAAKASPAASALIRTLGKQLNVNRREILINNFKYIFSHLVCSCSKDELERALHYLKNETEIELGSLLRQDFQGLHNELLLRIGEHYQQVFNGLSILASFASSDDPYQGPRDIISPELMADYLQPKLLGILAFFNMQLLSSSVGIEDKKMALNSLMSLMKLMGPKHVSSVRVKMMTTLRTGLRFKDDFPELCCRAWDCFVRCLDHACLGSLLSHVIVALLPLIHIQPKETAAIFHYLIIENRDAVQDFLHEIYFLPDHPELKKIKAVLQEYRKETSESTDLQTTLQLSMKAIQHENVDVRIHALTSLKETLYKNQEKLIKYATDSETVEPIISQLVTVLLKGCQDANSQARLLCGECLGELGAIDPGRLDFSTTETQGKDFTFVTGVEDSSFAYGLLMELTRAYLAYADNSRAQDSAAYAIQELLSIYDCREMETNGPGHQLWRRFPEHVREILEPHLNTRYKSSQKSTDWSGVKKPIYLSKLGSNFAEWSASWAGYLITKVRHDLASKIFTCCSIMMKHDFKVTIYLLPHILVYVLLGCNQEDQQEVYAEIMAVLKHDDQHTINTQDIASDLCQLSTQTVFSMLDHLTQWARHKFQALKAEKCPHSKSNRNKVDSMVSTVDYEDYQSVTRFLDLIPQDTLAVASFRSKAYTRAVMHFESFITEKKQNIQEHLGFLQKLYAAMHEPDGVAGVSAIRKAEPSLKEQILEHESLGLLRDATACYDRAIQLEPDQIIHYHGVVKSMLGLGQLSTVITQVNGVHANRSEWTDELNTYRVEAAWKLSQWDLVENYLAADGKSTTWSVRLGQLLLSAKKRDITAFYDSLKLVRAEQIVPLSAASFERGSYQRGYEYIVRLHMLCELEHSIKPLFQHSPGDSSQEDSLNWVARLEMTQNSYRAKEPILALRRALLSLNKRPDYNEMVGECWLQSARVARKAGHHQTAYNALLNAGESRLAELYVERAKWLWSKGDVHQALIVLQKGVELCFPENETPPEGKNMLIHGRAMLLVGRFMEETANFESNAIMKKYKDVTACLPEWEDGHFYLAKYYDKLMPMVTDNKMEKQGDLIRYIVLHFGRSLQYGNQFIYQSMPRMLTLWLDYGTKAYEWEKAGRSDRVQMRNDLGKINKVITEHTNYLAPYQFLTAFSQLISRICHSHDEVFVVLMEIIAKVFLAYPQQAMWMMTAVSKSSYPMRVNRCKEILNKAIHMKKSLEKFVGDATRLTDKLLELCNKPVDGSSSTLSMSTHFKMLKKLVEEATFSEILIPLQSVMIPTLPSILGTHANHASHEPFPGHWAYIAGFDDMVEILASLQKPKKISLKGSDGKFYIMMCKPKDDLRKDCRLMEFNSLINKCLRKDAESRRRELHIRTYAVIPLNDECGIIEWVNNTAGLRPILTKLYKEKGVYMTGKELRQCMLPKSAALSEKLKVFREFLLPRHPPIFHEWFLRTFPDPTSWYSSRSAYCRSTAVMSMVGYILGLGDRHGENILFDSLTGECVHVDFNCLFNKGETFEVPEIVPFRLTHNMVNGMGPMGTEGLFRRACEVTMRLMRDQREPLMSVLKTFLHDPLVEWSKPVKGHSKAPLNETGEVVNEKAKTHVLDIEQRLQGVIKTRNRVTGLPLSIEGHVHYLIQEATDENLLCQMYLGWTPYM
T1 sequence (Q8WXE1 whole entry partner): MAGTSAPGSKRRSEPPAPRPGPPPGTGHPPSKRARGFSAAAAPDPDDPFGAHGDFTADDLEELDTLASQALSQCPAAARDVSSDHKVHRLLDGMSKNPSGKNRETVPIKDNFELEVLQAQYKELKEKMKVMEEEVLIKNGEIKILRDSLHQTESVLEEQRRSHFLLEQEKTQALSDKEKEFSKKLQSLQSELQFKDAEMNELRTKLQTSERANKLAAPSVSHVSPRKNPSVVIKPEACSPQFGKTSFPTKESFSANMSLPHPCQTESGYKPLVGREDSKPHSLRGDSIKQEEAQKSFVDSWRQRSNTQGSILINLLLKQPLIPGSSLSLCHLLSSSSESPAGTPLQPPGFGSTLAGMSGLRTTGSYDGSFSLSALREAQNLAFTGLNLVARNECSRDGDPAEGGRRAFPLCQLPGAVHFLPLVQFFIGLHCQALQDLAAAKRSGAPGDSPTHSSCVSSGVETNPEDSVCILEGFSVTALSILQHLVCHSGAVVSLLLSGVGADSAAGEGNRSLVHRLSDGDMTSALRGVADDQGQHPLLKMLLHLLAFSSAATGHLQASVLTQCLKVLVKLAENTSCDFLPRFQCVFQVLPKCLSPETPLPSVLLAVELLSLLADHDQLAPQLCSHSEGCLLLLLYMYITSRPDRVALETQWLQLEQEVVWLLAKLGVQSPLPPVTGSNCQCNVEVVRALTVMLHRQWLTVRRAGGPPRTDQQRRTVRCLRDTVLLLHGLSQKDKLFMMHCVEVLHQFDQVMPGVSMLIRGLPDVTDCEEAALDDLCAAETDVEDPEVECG

Compound | PARP1-trapping potency relative to JC099 (PARP1 in the chromatin-bound fraction) (PARP1) | also measured
N#Cc1cc(NCCN2CCCC2)ccc1C(=O)NC1C/C(=C\c2ccc(F)c(F)c2)C(=O)/C(=C/c2ccc(F)c(F)c2)C1 (centres unmarked) [JCS0091] |  | ATR inhibition potency relative to JC099 (OLA- or UV-induced phosphorylation of Rad17 and CHK1) (ATR): their potencies were close to JC099
O=C1/C(=C/c2ccc(F)c(F)c2)CC(NC(=O)c2ccc(OCCN3CCN4CCCC4C3)cc2)C/C1=C\c1ccc(F)c(F)c1 (centres unmarked) [JCS135, N-(3,5-Bis((E)-3,4-difluorobenzylidene)-4-oxocyclohexyl)-4-(2-(hexahydropyrrolo[1,2-a]pyrazin-2(1H)-yl)ethoxy)benzamide] | higher potency in PARP1-trapping | 
CCCCNCCOc1ccc(C(=O)NC2C/C(=C\c3ccc(F)c(F)c3)C(=O)/C(=C/c3ccc(F)c(F)c3)C2)cc1 (centres unmarked) [JCS034, N-(3,5-Bis((E)-3,4-difluorobenzylidene)-4-oxocyclohexyl)-4-(2-(butylamino)ethoxy)benzamide] | higher potency in PARP1-trapping | PARP1 trapped on DNA lesions (PARP1; 0.5 μM): trapped
COCCNCCOc1ccc(C(=O)NC2C/C(=C\c3ccc(F)c(F)c3)C(=O)/C(=C/c3ccc(F)c(F)c3)C2)cc1 (centres unmarked) [JCS031, N-(3,5-Bis((E)-3,4-difluorobenzylidene)-4-oxocyclohexyl)-4-(2-((2-methoxyethyl)amino)ethoxy)-benzamide] |  | PARP1 trapped on DNA lesions (PARP1; 0.5 μM): trapped
O=C1/C(=C/c2ccc(F)c(F)c2)CC(NC(=O)c2ccc(OCCN3CCCCC3)c(OCc3ccccc3)c2)C/C1=C\c1ccc(F)c(F)c1 (centres unmarked) [JCS102, 3-(Benzyloxy)-N-(3,5-bis((E)-3,4-difluorobenzylidene)-4-oxocyclohexyl)-4-(2-(piperidin-1-yl)eth-oxy)benzamide] | higher potency in PARP1-trapping | 
CCCN(CCC)CCOc1ccc(C(=O)NC2C/C(=C\c3ccc(F)c(F)c3)C(=O)/C(=C/c3ccc(F)c(F)c3)C2)cc1 (centres unmarked) [JCS011, N-(3,5-Bis((E)-3,4-difluorobenzylidene)-4-oxocyclohexyl)-4-(2-(dipropylamino)ethoxy)benzamide] | higher potency in PARP1-trapping | PARP1 trapped on DNA lesions (PARP1; 0.5 μM and 2 μM): trapped
O=C1/C(=C/c2ccc(F)c(F)c2)CC(NC(=O)c2ccc(OCCN3CCCCC3)cc2)C/C1=C\c1ccc(F)c(F)c1 (centres unmarked) [JCS16] |  | PARP1 trapped on DNA lesions (PARP1; 0.5 μM): trapped
CC(C)N(CCOc1ccc(C(=O)NC2C/C(=C\c3ccc(F)c(F)c3)C(=O)/C(=C/c3ccc(F)c(F)c3)C2)cc1)C(C)C (centres unmarked) [JCS013, N-(3,5-Bis((E)-3,4-difluorobenzylidene)-4-oxocyclohexyl)-4-(2-(diisopropylamino)ethoxy)benzamide] | higher potency in PARP1-trapping | PARP1 trapped on DNA lesions (PARP1; 0.5 μM and 2 μM): trapped
CCc1ccc2c(c1)CCC1(CCN(CCOc3ccc(C(=O)NC4C/C(=C\c5ccc(F)c(F)c5)C(=O)/C(=C/c5ccc(F)c(F)c5)C4)cc3)CC1)O2 (centres unmarked) [JCS078, N-(3,5-bis((E)-3,4-difluorobenzylidene)-4-oxocyclohexyl)-4-(2-(6-ethylspiro[chromane-2,4′-piperidin]-1′-yl)ethoxy)benzamide] | increased the accumulation of PARP1 in the chromatin-bound fraction than JC099 | 
CCN(CC)CCOc1cccc(C(=O)NC2C/C(=C\c3ccc(F)c(F)c3)C(=O)/C(=C/c3ccc(F)c(F)c3)C2)c1 (centres unmarked) [JCS099, N-(3,5-Bis((E)-3,4-difluorobenzylidene)-4-oxocyclohexyl)-3-(2-(diethylamino)ethoxy)benzamide] | higher potency in PARP1-trapping | 
O=C(CN1CCOCC1)Nc1ccc(C(=O)NC2C/C(=C\c3ccc(F)c(F)c3)C(=O)/C(=C/c3ccc(F)c(F)c3)C2)cc1 (centres unmarked) [JCS047, N-(3,5-bis((E)-3,4-difluorobenzylidene)-4-oxocyclohexyl)-4-(2-morpholinoacetamido)benzamide] |  | PARP1 trapped on DNA lesions (PARP1; 0.3 μM): trapped
CCN(CC)CCOc1ccc(C(=O)NC2CC(Cc3ccc(F)c(F)c3)C(=O)C(Cc3ccc(F)c(F)c3)C2)cc1 (centres unmarked) [JCS074, N-(3,5-bis(3,4-difluorobenzyl)-4-oxocyclohexyl)-4-(2-(diethylamino)ethoxy)benzamide] | increased the accumulation of PARP1 in the chromatin-bound fraction than JC099 | 
NCCOc1ccc(C(=O)NC2C/C(=C\c3ccc(F)c(F)c3)C(=O)/C(=C/c3ccc(F)c(F)c3)C2)cc1 (centres unmarked) [JCS036] |  | PARP1 trapped on DNA lesions (PARP1; 0.5 μM): trapped
CCN(CC)CCNc1ccc(C(=O)NC2C/C(=C\c3ccc(F)c(F)c3)C(=O)/C(=C/c3ccc(F)c(F)c3)C2)cc1 (centres unmarked) [JCS070, N-(3,5-Bis((E)-3,4-difluorobenzylidene)-4-oxocyclohexyl)-4-((2-(diethylamino)ethyl)amino)benz-amide] | higher potency in PARP1-trapping | 
O=C1/C(=C/c2ccc(F)c(F)c2)CC(NC(=O)c2ccc(NCCN3CCOCC3)cc2)C/C1=C\c1ccc(F)c(F)c1 (centres unmarked) [JCS042, N-(3,5-Bis((E)-3,4-difluorobenzylidene)-4-oxocyclohexyl)-4-((2-morpholinoethyl)amino)benzamide] |  | PARP1 trapped on DNA lesions (PARP1; 0.3 μM): trapped
O=C1/C(=C/c2ccc(F)c(F)c2)CC(NC(=O)c2ccc(NCCCN3CCCC3)cc2)C/C1=C\c1ccc(F)c(F)c1 (centres unmarked) [JCS044, N-(3,5-Bis((E)-3,4-difluorobenzylidene)-4-oxocyclohexyl)-4-((3-(pyrrolidin-1-yl)propyl)amino)benz-amide] |  | PARP1 trapped on DNA lesions (PARP1; 0.3 μM): trapped
CC(=O)c1cc(C(=O)NC2C/C(=C\c3ccc(F)c(F)c3)C(=O)/C(=C/c3ccc(F)c(F)c3)C2)ccc1OCCN1CCCCC1 (centres unmarked) [JCS103, 3-Acetyl-N-(3,5-bis((E)-3,4-difluorobenzylidene)-4-oxocyclohexyl)-4-(2-(piperidin-1-yl)ethoxy)-benzamide] | higher potency in PARP1-trapping | 
O=C(CN1CCCC1=O)Nc1ccc(C(=O)NC2C/C(=C\c3ccc(F)c(F)c3)C(=O)/C(=C/c3ccc(F)c(F)c3)C2)cc1 (centres unmarked) [JCS048, N-(3,5-bis((E)-3,4-difluorobenzylidene)-4-oxocyclohexyl)-4-(2-(2-oxopyrrolidin-1-yl)acetamido)benzamide] | higher potency in PARP1-trapping | PARP1 trapped on DNA lesions (PARP1; 0.3 μM): trapped
CCN(CC)CCOc1ccc(C(=O)NC2C/C(=C\c3ccc(F)c(F)c3)C(=O)/C(=C/c3ccc(F)c(F)c3)C2)nc1 (centres unmarked) [JCS131, N-(3,5-Bis((E)-3,4-difluorobenzylidene)-4-oxocyclohexyl)-5-(2-(diethylamino)ethoxy)picolinamide] | higher potency in PARP1-trapping | 
3-amino-N-(3,5-bis((E)-3,4-difluorobenzylidene)-4-oxocyclohexyl)-5-(4-(isopropylsulfonyl)phenyl)pyrazine-2-carboxamide [JCS089] | their potencies were less than JC099 | 
O=C1/C(=C/c2ccc(F)c(F)c2)CC(NC(=O)c2ccc(OCCN3CC4OCCOC4C3)cc2)C/C1=C\c1ccc(F)c(F)c1 (centres unmarked) [JCS137, N-(3,5-Bis((E)-3,4-difluorobenzylidene)-4-oxocyclohexyl)-4-(2-(hexahydro-6H-[1,4]dioxino[2,3-c]pyrrol-6-yl)ethoxy)benzamide] | their potencies were less than JC099 | 
O=C1/C(=C/c2ccc(F)c(F)c2)CC(NC(=O)c2ccc(NC(=O)N3CCCC3)cc2)C/C1=C\c1ccc(F)c(F)c1 (centres unmarked) [JCS054, N-(4-((3,5-bis((E)-3,4-difluorobenzylidene)-4-oxocyclohexyl)carbamoyl)phenyl)pyrrolidine-1-carboxamide] | higher potency in PARP1-trapping | PARP1 trapped on DNA lesions (PARP1; 0.3 μM): trapped
CCCN(CCC)CCNc1ccc(C(=O)NC2C/C(=C\c3ccc(F)c(F)c3)C(=O)/C(=C/c3ccc(F)c(F)c3)C2)cc1 (centres unmarked) [JCS065, N-(3,5-Bis((E)-3,4-difluorobenzylidene)-4-oxocyclohexyl)-4-((2-(dipropylamino)ethyl)amino)benz-amide] | higher potency in PARP1-trapping | 
Cc1nn(C)c2ncc(C(=O)NC3C/C(=C\c4ccc(F)c(F)c4)C(=O)/C(=C/c4ccc(F)c(F)c4)C3)c(Cl)c12 (centres unmarked) [JCS085] | higher potency in PARP1-trapping | 
